Patent publication US5026698A, “Thienopyridine type mevalonolactones” (Nissan Chemical Industries, Ltd., priority 1988, dated 1991)

What was measured:
[1] = test system: cholesterol biosynthesis in Hep G2 cells; test: Test B-1: Inhibition of cholesterol biosynthesis in culture cells (Hep G2, [2-14C]sodium acetate added at 0 hr); type: cell-based; conditions: for Relative activities by Test B-1: based on the activity of CS-514 by Test B-1 being evaluated to be 1; for inhibition at 1 µM: 1.0 × 10^-6 mol/l, read-out: Inhibitory activities at a concentration of 1.0 × 10^-6 mol/l by Test B-1 (Relative activities)
Description: Hep G2 cells at over 5th passage were seeded to 12 well plates and incubated with Dulbecco's modified Eagle (DME) medium containing 10% of fetal bovine serum (FBS) at 37° C., 5% CO2 until cells -were confluent for about 7 days. Cells were exposed to the DME medium containing 5% of lipoprotein deficient serum (LpDS) prepared by ultracentrifugation method for over 24 hours. Medium was changed to 0.5 ml of fresh 5% LpDS containing DME before assay and 10 μl of test compound solution dissolved in water or DMSO were added. 0.2 μCi of [2-^14 C]sodium acetate (20 μl) was added at 0 hr(B 1) or 4 hrs(B 2) after addition of compounds. After 4 hrs further incubation with [2-^14 C]sodium acetate, medium was removed and cells were washed with phosphate buffered saline (PBS) chilled at 4° C. Cells were scraped with rubber policeman and collected to tubes with PBS and digested with 0.2 ml of 0.5N KOH at 37° C. Aliquot of digestion was used for protein analysis and remaining was saponified with 1 ml of 15% EtOH-KOH at 75° C. for 1 hour. Nonsaponifiable lipids were extracted with petroleum ether and ^14 C radioactivity was counted. Counts were revised by cell protein and indicated with DPM/mg protein. Inhibitory activity of compounds was indicated with IC50. With respect to the compounds of the present invention, the inhibitory activities against the cholesterol biosynthesis in which HMG-CoA reductase serves as a rate limiting enzyme, were measured by the above Test A and B.

cholesterol biosynthesis [2] = test: Test C: Inhibition of cholesterol biosynthesis in vivo; set-up: species or system Male Sprague-Dawley rats; conditions: oral, 0.2 mg/kg, rats; DPM/2 ml serum/2 hours
Description: Male Sprague-Dawley rats weighing about 150 g were fed normal Purina chow diet and water ad libitum, and exposed to 12 hours light/12 hours dark lighting pattern (2:00 PM-2:00 AM dark) prior to use for in vivo inhibition test of cholesterol biosynthesis. Animals were separated groups consisting of five rats as to be average mean body weight in each groups. Test compounds at dosage of 0.02-0.2 mg/kg body weight (0.4 ml/100 g body weight), were dissolved in water or suspended in 0 5% methyl cellulose and orally administered at 2-3 hours before mid-dark (8:00 PM), while cholesterol biosynthesis reaches to maximum in rats. As control, rats were orally administered only water or vehicle. At 90 minutes after sample administration, rats were injected intraperitoneally with 10 μCi of [2-^14 C]sodium acetate at volume of 0.2 ml per one. 2 Hours later, blood samples were obtained and serum were separated immediately. Total lipids were extracted according to the method of Folch et al. and saponified with EtOH-KOH. Nonsaponifiable lipids were extracted with petroleum ether and radio activity incorporated into nonsaponifiable lipids was counted.
Inhibitory activity was indicated as percent decrease of counts in testing groups (DPM/2 ml serum/2 hours) from that in control group.

cholesterol biosynthesis [3] = test: Test A: Inhibition of cholesterol biosynthesis from acetate in vitro (rat liver microsome and sup fraction, [2-14C]sodium acetate); type: biochemical, male Wistar rat; conditions: for Relative activities by Test A: based on the activity of CS-514 by Test A being evaluated to be 1
Description: Enzyme solution was prepared from liver of male Wistar rat billialy connulated and discharged bile for over 24 hours. Liver was cut out at mid-dark and microsome and supernatant fraction which was precipitable with 40-80% of solution of ammonium sulfate (sup fraction) were prepared from liver homogenate according to the modified method of Knauss et. al.; Kuroda, M., et. al., Biochim. Biophys. Acta, 489, 119 (1977). For assay of cholesterol biosynthesis, microsome (0.1 mg protein) and sup fraction (1.0 mg protein) were incubated for 2 hours at 37° C. in 200 μl of the reaction mixture containing ATP; 1 mM, Glutathione; 6 mM, Glucose-1-phosphate; 10 mM, AND; 0.25 mM, NADP; 0.25 mM, CoA; 0.04 mM and 0.2 mM [2-^14 C]sodium acetate (0.2 μCi) with 4 μl of test compound solution dissolved in water or dimethyl sulfoxide. To stop reaction and saponify, 1 ml of 15% EtOH-KOH was added to the reactions and heated at 75° C. for 1 hour. Nonsaponifiable lipids were extracted with petroleum ether and incorporated ^14 C radioactivity was counted. Inhibitory activity of compounds was indicated with IC50.
With respect to the compounds of the present invention, the inhibitory activities against the cholesterol biosynthesis in which HMG-CoA reductase serves as a rate limiting enzyme, were measured by the above Test A and B. The results are shown in Tables 2, 3-1 and 3-2.
The relative activities of the compounds of the present invention based on the activities of CS-514 by Test A being evaluated to be 1, are shown in Table 2.

Test D: Acute toxicity = conditions: mouse, in vivo, 1000 mg/kg; oral, 1,000 mg/kg, 0.5% CMC suspension, ICR male mice (group of three); read-out: mortality after seven days
Description: A 0.5% CMC suspension of a test compound was orally administered to ICR male mice (group of three mice). The acute toxicity was determined based on the mortality after seven darys. With compound I-5-1, I-5-2, I-5-8, I-5-9 and I-5-10 of the present ivnention, the mortality was 0% even when they were orally administered in an amount of 1,000 mg/kg, respectively.

[4] = Homo sapiens, HepG2, Hep G2 cells

| Compound | Relative activities by Test B-1 [1] | Relative activities by Test A (cholesterol biosynthesis [3]) | inhibition at 1 µM [1, 4] [%] | mortality at 168 h (Test D: Acute toxicity) [%] | other results |
| --- | --- | --- | --- | --- | --- |
| O=C(O)CC(O)CC(O)/C=C/c1c(C2CC2)nc2sccc2c1-c1ccc(F)cc1 (stereo not shown) [Compound I-5-11] | 60 |  |  |  | percent decrease of counts relative to control group (Test C) (cholesterol biosynthesis [2]): 65% |
| CC[C@H](C)C(=O)O[C@H]1C[C@H](O)C=C2C=C[C@H](C)[C@H](CC[C@@H](O)C[C@@H](O)CC(=O)O)[C@H]21 [CS-514, reference compound] |  |  |  |  | IC50 (cholesterol biosynthesis [3]; rat liver microsome + sup fraction, 2 hours at 37° C.): 9 nM; IC50 ([1]; Homo sapiens, HepG2, Hep G2 cells, [2-14C]sodium acetate added at 0 hr): 1370 nM; percent decrease of counts relative to control group (Test C) (cholesterol biosynthesis [2]): 34% |
| CC(C)c1cc2c(-c3ccc(F)cc3)c(/C=C/C(O)CC(O)CC(=O)O)c(C(C)C)nc2s1 (stereo not shown) [Compound I-5-5] | 62 | 0.31 | 69.8 |  |  |
| Cc1sc2nc(C(C)C)c(/C=C/C(O)CC(O)CC(=O)O)c(-c3ccc(F)cc3)c2c1-c1ccccc1 (stereo not shown) [Compound I-5-4] | 1.4 |  | 48.2 |  |  |
| Cc1cc2c(-c3ccc(F)cc3)c(/C=C/C(O)CC(O)CC(=O)O)c(C(C)C)nc2s1 (stereo not shown) [Compound I-5-2] | 76 | 0.51 |  | 0 |  |
| CCOC(=O)CC(O)CC(O)/C=C/c1c(C(C)C)nc2sc(C)c(CC)c2c1-c1ccc(F)cc1 (stereo not shown) [Compound I-1-1, Ethyl (E)-7-[3'-ethyl-4'-(4"-fluorophenyl)-2'-methyl-6'-(1"-methylethyl)thieno[2,3-b]pyridin-5'-yl]-3,5-dihydroxyhept-6-enoate] | 196 | 0.50 |  |  |  |
| O=C(O)CC(O)CC(O)/C=C/c1c(C2CC2)nc2sc3c(c2c1-c1ccc(F)cc1)CCC3 (stereo not shown) [Compound I-5-9] |  | 2.9 | 62.4 | 0 |  |
| CC(C)c1nc2sc3c(c2c(-c2ccc(F)cc2)c1/C=C/C(O)CC(O)CC(=O)O)CCCC3 (stereo not shown) [Compound I-5-6] | 152 | 4.1 |  |  |  |
| O=C(O)CC(O)CC(O)/C=C/c1c(C2CC2)nc2sc3c(c2c1-c1ccc(F)cc1)CCCCC3 (stereo not shown) [Compound I-5-10] |  | 0.21 | 53.6 | 0 |  |
| CCOC(=O)CC(=O)CC(O)/C=C/c1c(C(C)C)nc2sc(C)cc2c1-c1ccc(F)cc1 (stereo not shown) [II-2] | 152 |  |  |  |  |
| CCc1c(C)sc2nc(C(C)C)c(/C=C/C(O)CC(O)CC(=O)O)c(-c3ccc(F)cc3)c12 (stereo not shown) [Compound I-5-1, Sodium (E)-7-[3'-ethyl-4'-(4"-fluorophenyl)-2'-methyl-6'-(1"-methylethyl)thieno[2,3-b]pyridin-5'-yl]-3,5-dihydroxyhept-6-enoate] | 152 | 0.55 |  | 0 |  |
| CC(C)c1nc2sc(-c3ccccc3)cc2c(-c2ccc(F)cc2)c1/C=C/C(O)CC(O)CC(=O)O (stereo not shown) [Compound I-5-3] |  |  | 46.8 |  |  |
| O=C1C[C@H](O)C[C@@H](/C=C/c2c(C3CC3)nc3sccc3c2-c2ccc(F)cc2)O1 (relative stereo) [Compound I-3-11, (E)-trans-6-[2'-(6"-cyclopropyl-4"-(4"'-fluorophenyl)-thieno[2,3-b]pyridin-5"-yl)ethenyl]-4-hydroxy-3,4,5,6-tetrahydro-2H-pyran-2-one] |  |  |  |  | percent decrease of counts relative to control group (Test C) (cholesterol biosynthesis [2]): 68% |
| CCc1c(C)sc2nc(C3CC3)c(/C=C/C(O)CC(O)CC(=O)O)c(-c3ccc(F)cc3)c12 (stereo not shown) [Compound I-5-7] |  | 0.36 | 64.1 |  |  |
| CC(C)c1nc2sc3c(c2c(-c2ccc(F)cc2)c1/C=C/C(O)CC(O)CC(=O)O)CCC3 (stereo not shown) [Compound I-5-8] |  | 0.32 | 63.6 | 0 |  |
